Source: patent US10464907B2, “Compound having HSP90 inhibitory activity or pharmaceutically acceptable salt thereof, and medical use thereof” (priority 2016, dated 2019)
Where two headings read alike, the source gives them in different places.

Columns and labels:
H1975 [1] = assay: H1975 colony formation (clogenic assay); assay type: cell-based; conditions: 0.05 μM, 3 weeks, FIG. 3
Protocol: H1975 cells were treated with Compound 17 at a concentration of 0.05 or 0.5 μM for 3 weeks and then clogenic assay was performed.
First, RPMI1640 medium (10% FBS, 0.48% agar) was added to a 6-well plate and hardened, and then, 10000 cells (H1975) were dispensed in a medium containing RPMI1640 medium (10% FBS, 0.33% agar) and solidified. After solidification, the cells were treated with compound at a concentration of 0.05 or 0.5 μM for 24 hours, followed by culturing for 3 weeks, and then colony formation was confirmed using a crystal violet staining solution.

[2] = system: HSP90 client protein of EGFR, Her2, Met, Akt, c-Raf, Cpk4; assay: Protein expression analysis (western blotting), Compound 17; assay type: cell-based; conditions: 24 hours, FIG. 4
Protocol: Next, the cells were dispensed into 100 mm culture dishes (1×10^6/dish) and adhered to the bottom surface overnight. Compound 17 at a concentration of 0.05, 0.1, 0.5 or 1 μM was added to the cells, followed by further culture for 24 hours.
In addition, cells were treated with DMSO (1%) or geladinamycin (1 μM) as a control and cultured for 24 hours.
The cultured cells were harvested and lysed in ice-cold lysis buffer (23 mM Tris-HCl pH 7.6, 130 mM NaCl, 1% NP40, 1% sodium deoxycholate, 0.1% SDS (sodium dodecylsulfate)), and 30 μg of the lysate was separated by SDS-PAGE (SDS-polyacrylamide gel electrophoresis) and transferred to a PVDF membrane (Bio-Rad).
Membranes were blocked with TBST (Tween 20 containing Tris-Buffered Saline) containing 5% skim milk and incubated with the respective primary antibodies [EGFR (Epidermal growth factor receptor), Her2 (human epidermal growth factor receptor type 2), Met, N-cadherin, E-cadherin, α-tubulin, acetyl-α-tubulin, protein kinase B (Akt), c-Raf, Cdk4 (Cyclin-dependent kinase 4), HSP90, HSP70, PARP (Poly ADT-ribose Polymerase), caspase 3, cleaved caspase 3, truncated caspase 8, B-cell lymphoma 2 (Bcl-2), Bax or β-Actin, purchased from Cell Signaling Technology (USA)].
After binding to a secondary antibody conjugated with horseradish peroxidase, the protein was visualized by ECL (electrochemiluminescence, GE healthcare, USA).

LogP = assay type: physicochemical; conditions: called measured values of LogP
Protocol: All experimental data were analyzed using Prism software (version 5.0, Graphpad Software, San Diego, Calif.). In addition, tPSA (Topological Polar Surface Area) calculated using Chemdraw software and the measured values of LogP are shown in Tables 1 and 2 below.

H1975 [3] = assay: MTS cell proliferation / survival assay; assay type: cell-based
Protocol: Sk-Br3 (Korean cell line bank), a breast cancer cell, and H1975 cell (ATCC), a nonsmall cell lung cancer, were cultured in RPMI 1640 containing 25 mM HEPES (4-(2-hydroxyethyl)-1-piperazineethanesulfonic acid) and RPMI 1640 containing L-glutamine (containing streptomycin ([…]), penicillin (100 units/mL) and 10% fetal bovine serum (FBS)).
The cells were cultured under a humidified atmosphere of 37° C. and 5% CO2.
Next, non-metastatic lung cancer cells were treated with Compound 17 and the cell proliferation rate or cell survival rate was measured by MTS [3-(4,5-dimethylthiazol-2-yl)-5-(3-carboxymethoxyphenyl)-2-2H-tetrazolium, inner salt] analysis.
Cells were dispensed in 96-well plates at 3000 cell/well (Sk-Br3) and 2000 cell/well (H1975), and 100 μL of the medium was added per well and then was incubated overnight.
Cell proliferation was evaluated using the Promega Cell Titer 96 Aqueous One Solution cell proliferation assay.
After compound and cell culture, 20 μL of assay substrate solution was added to each well and incubated at 37° C. for an additional 1 hour.
Cell proliferation was confirmed by measuring the absorbance at 490 nm using a microplate reader (Tecan Infinite F200 Proplate reader).

[4] = system: HSP90 client proteins (Her2, EGFR, Met, Akt, c-Raf) and HSP70 in H1975 cells; assay: Analysis of protein expression (western blot), Compound 21f; assay type: cell-based
Protocol: Compound 21f having good efficacy was selected and HSP90 client protein proliferation effect in the same cell line was confirmed, in which the HSP90 client proteins were Her2 (human EGFR-related 2), EGFR (epidermal growth factor receptor), Met and c-Raf were used.
H1975 cells resistant to Gefitinib were cultured in a medium supplemented with 10% fetal bovine serum (FBS) for 24 hours, and the cells were detached, harvested and diluted with a RPMI 1640 medium so as to be 5×10^5 cells/well. Each 5 mL of the suspension was added to […] culture dish and cultured for 24 hours. Then, the medium was changed to the culture solution treated with each compound of concentration (21f: 0, 0.05, 0.1, 0.5 or 1 μM, GA: 1 μM), and cultured for 24 hours. After culture, the cells were harvested and centrifuged at 1300 rpm for 5 minutes at 4° C., and the supernatant was removed. The pellet was washed with phosphate buffered saline, centrifuged once again under the same conditions, and the supernatant was removed. Lysis buffer was added to the remaining pellet and lysed by vortexing at 5 minute intervals for 30 minutes. The supernatant was separated by centrifugation at 16000 rcf for 4 minutes at 4° C., and proteins were quantified using BCA ([…]) kit. SDS-PAGE (sodium dodecylsulfate-polyacrylamide gel electrophoresis) was performed using 10, 12% running gel and 4% stacking gel (10 mA per gel). The separated proteins were transferred to an immunoblot PVDF membrane (polyvinylidene fluoride membrane) at 100 V for 75 minutes. The membranes were blocked with 5% skim milk solution for 2 hours and then added a primary antibody diluted in the ratio of 1: 750-1,000 in 0.1% tween-20 solution and reacted at 4° C. for 12 hours. After washing three times with TBS-T (Tris-buffered saline and Tween 20 containing Tween 20) and detected with an image analyzer using ECL (enhanced chemiluminescence) solution.

HSP90α = HSP90α (Homo sapiens (Human), UniProt P07900); assay: Fluorescence polarization assay, binding ability to HSP90, benzamide compounds; conditions: GA-FITC 100 nM; read-out: HSP90 FP) (IC50; nM)
Protocol: 1 M dithiothreitol (DTT), 10 mg/m: BGG (bovine gamma globulin) were added to hexafluorobenzene (HFB) buffer (20 mM HEPES pH 7.3, 50 mM KCl, 5 mM MgCl2, 20 mM Na2MoO4, 0.01% NP4O, 3rd distilled water) and mixed. Then, 100 nM […] (GA)-FITC (Fluorescein isothiocyanate) was added and reacted at room temperature for 10 minutes. Each 100 μL of the mixture was dispensed into the control wells of a 96-well plate, 2 μL of HSP90α was added to the remaining mixture, and each 100 μL of the other wells was dispensed. […] The binding ability of the compound to HSP90 was expressed as mP (millipolarization unit=1000 mP unit).

H1975 cells = assay: MTS cell viability in H1975 cells resistant to Gefitinib; assay type: cell-based; conditions: H1975, 3 days
Protocol: To confirm the cell viability according to the concentration of the compound synthesized in H1975 cells (ATCC) resistant to Gefitinib, MTS [3-(4,5-dimethylthiazol-2-yl)-5-[…]carboxymethoxyphenyl)-2-(4-sulfophenyl)-2H-tetrazolium, inner salt] analysis was performed. When the cells were cultured so as to occupy 80% of the bottom of the culture dish, the cells were detached and diluted with RPMI 1640 medium to a concentration of 1.5×10^3 cells/well. Each 100 μL of the suspension was added to each well of a 96-well plate and cultured for 14 hours. Then, the medium was changed to the culture solution treated with compound of each concentration each concentration (1a-g: 0, 1, 5, 10, 30, 50 or 100 μM, 14a-I, 16a, b, 21a-f: 0, 0.01, 0.1, 1, 5, 10, 30, 50, 70 or 100 μM), and cultured for 3 days. Each 20 μL of the MTS solution was dispensed into each well and reacted for 1 hour at 37° C. in an incubator supplied with 5% CO2.

SMILES | colony formation of H1975 (H1975 [1]) | HSP protein inhibition / degradation of HSP90 client protein ([2]; 0.05-1 μM) | concentration at which most of the client proteins were denatured [2] [nM] | logP (LogP) | cell death (cell survival) (H1975 [3]; 72 hours, FIG. 2B) | IC50 (H1975 [3]; Homo sapiens, NCI-H1975, read-out: IC50 for H1975) [nM] | inhibition at 10 µM (H1975 [3]; Homo sapiens, NCI-H1975, read-out: Inhibition rate at 10 μM (%)) [%] | inhibition at 30 µM (H1975 [3]; Homo sapiens, NCI-H1975, read-out: Inhibition rate at 30 μM (%)) [%] | proliferation rate of the cells (H1975 [3]; non-small cell lung cancer cells, 1, 2 and 3 days, FIG. 2A) | expression of HSP90 client proteins ([4]; H1975, 0.05-1 μM, 24 hours, FIG. 5) | concentration at which expression of HSP70 was increased ([4]; H1975, 24 hours) [µM] | concentration at which expression was significantly decreased: EGFR ([4]; H1975, 24 hours) [µM] | concentration at which expression was significantly decreased: Her2, Met, and Akt ([4]; H1975, 24 hours) [µM] | IC50 (HSP90α) [nM] | EC50 (H1975 cells; read-out: H1975 (EC50; μM)) [µM] | EC50 (H1975 cells; read-out: H1975 EC50) [µM]
CC(C)c1cc(C(=O)N2CCN(C)CC2c2ccccc2)c(O)cc1O (stereo not shown) [Compound 17, (2,4-dihydroxy-5-isopropylphenyl)(4-methyl-2-phenylpiperazin-1-yl)methanone] | inhibited | inhibited HSP protein in concentration-dependent manner | 500 | 3.8 | cell death was also observed | 98000 | 72.1 | 77.6 | inhibited in a concentration-dependent manner |  |  |  |  |  |  | 
CCCNC(=O)c1ccc(CN(C)C(=O)c2cc(C(C)C)c(O)cc2O)cc1 [Compound 21f, 2,4-dihydroxy-5-isopropyl-N-methyl-N-(4-(propylcarbamoyl)benzyl) benzamide] |  |  |  |  |  |  |  |  |  | inhibited in a concentration-dependent manner | 0.5 | 0.1 | 0.5 | 5.3 | 0.42 | 0.42
